Experimental data: patent publication EP1333824B1, “TREATMENT OF SEXUAL DYSFUNCTION WITH BOMBESIN RECEPTOR ANTAGONISTS” (Warner-Lambert Company LLC, priority 2000, dated 2002)

Tests used:
Sprague Dawley male rats [1] = test: Sexual behaviour of fluoxetine-induced sexually dysfunctional male rats; format: in vivo, rat; conditions: fluoxetine 20mg/kg i.p. 3 days (vs vehicle+vehicle)
Description: (§1) Sprague Dawley male rats (Charles River, UK) were kept, 4 rats per cage, in a reversed lighting regime (12:12 hours, lights off at 5.00 h), with free access to food and water. The rats were pre-selected by being presented with a receptive female at 4 days intervals, i.e. every third day (having 2 clear days between presentations) until completing 6-7 trials of baseline determination. The animals showing consistently vigorous behaviour (ejaculatory latencies <300s) were chosen for further experiments. Animals were treated for 3 consecutive days with either vehicle (water) or fluoxetine (20mg/kg, i.p., in a 2ml/kg dosing volume). […] All treatments were administered i.p. in a 1ml/kg volume, 1h before tests.
(§2) For all the sexual behaviour tests, the males were placed in an observation arena (50-60 cm diameter), starting 5 hours into the dark cycle and observed under red illumination. Three to 4 minutes after placing the male in the arena, a receptive female (ovariectomised, bearing a 7 mm Silastic implant of oestradiol benzoate) was introduced to the arena and the following parameters noted: Mount Latency: time (in seconds) taken between introduction of female and first mount. A maximum time of 15 minutes (900 seconds) was allowed, and the test terminated if no mounts were recorded within that time (Figure 16), Ejaculation Latency: time (in seconds) taken from first intromission to ejaculation. A maximum time of 30 minutes (1800 seconds) was given, and the test terminated if ejaculation was not achieved in that time (Figure 17), Percentage of males achieving ejaculation within 30 minutes was calculated (Figure 18).
A one-way ANOVA followed by Dunnett's t test was used to compare the fluoxetine+vehicle group and other groups for mount and ejaculatory latencies. Percentage of animals ejaculating was analysed using a Chi-square test followed by Fisher's test. (*: P<0.05, **: P<0.01, ***: P<0.001; n=15-19).

Sprague Dawley male rats [2] = test: Sexual behaviour of normal (sexually vigorous) male rats; format: in vivo, rat; conditions: Compound (1) 15mg/kg or Fluoxetine 20mg/kg i.p. 1h before tests, vs vehicle
Description: as §1, with “days” for “trials”, “experiments (n=24).” for “experiments.”, “randomised into three groups. All animals received all three treatments following a latin-square design. Treatments were administered once a week, with a baseline test in between treatments (4” for “treated for 3 consecutive”, “intervals between baseline and test day).” for “with either vehicle (water) or fluoxetine (20mg/kg, i.p., in a 2ml/kg dosing volume).”
as §2, with “11), Intromission Latency: time (in seconds) taken between introduction of female and first intromission (Figure 12), Number of Mounts: to reach ejaculation. When ejaculation was not reached, the number of mounts was not analyzed, Number of Intromissions: to reach ejaculation. When ejaculation was not reached, the number of intromissions was not analyzed (Figure 13 is number of mounts + intromissions),” for “16),”, “14), and Refractory Period: time (in seconds) taken from ejaculation to the first mount” for “17), Percentage”, “the next series of sexual activity. In those animals reaching” for “males achieving”, “the test” for “within 30 minutes”, “terminated at the end of the refractory period, as indicated by the first mount of the next sexual cycle” for “calculated”, “15).” for “18).”
A one-way ANOVA followed by Dunnett's t test was used to compare treated vs vehicle groups each day of testing, for all the sexual behaviour parameters.

[3] = test system: Ovariectomised adult female Sprague Dawley rats; test: Female rat sexual receptivity test (lordosis quotient, LQ); format: in vivo; conditions: Example 2; after vs before administration (paired t test); Compound (1) 10mg/kg i.p. 1h; quinelorane 6.25µg/kg s.c. 90min
Description: Ovariectomised adult female Sprague Dawley rats (180-200g, from Charles River) were housed in groups of 6 in a reversed lighting system of 12h light:dark (lights off 7.00-19.00h). Two weeks after ovariectomy they were used for sexual activity tests. The experiments started at least 5h into the dark period.
It was administered intraperitoneally (i.p.) at a dose of 10mg/kg, in a dosing volume of 1ml/kg. […] Forty eight hours before testing, ovariectomised female rats (as described above), were primed with 5µg oestradiol benzoate dissolved in corn oil and injected subcutaneously. […] The females were placed with a series of vigorous male rats and subjected to 10 mounts.
The lordotic response of the animal was recorded and expressed as a percentage of the mounts (i.e. lordosis quotient, LQ), as previously described. Animals showing LQ<20 were considered non-receptive and were included in the study. Each rat was tested prior to administration of the compound and then tested similarly post-injection.
The above compound was dissolved in PEG200 vehicle and administered orally. […] Both compounds were administered in a 1ml/kg volume.
Forty eight hours before tests, the animals were primed with 5µg oestradiol benzoate (Sigma Chemical. Co. Ltd., UK) dissolved in corn oil and injected subcutaneously. The females were placed with a series of vigorous male rats and subjected to 10 mounts. The lordotic response of the animal was recorded and expressed as a percentage of the mounts (i.e. lordosis quotient, LQ). […] Animals showing higher LQ were not included in the study. Each rat was tested prior to administration of the compound and then tested similarly at 1h and 90min post-injection of the above compound or quinelorane respectively.

[4] = day 4 Compound (1) 15mg/kg or yohimbine 2mg/kg i.p. 1h before tests (vs fluoxetine+vehicle)

COc1ccc(C2(CNC(=O)[C@](C)(Cc3c[nH]c4ccccc34)NC(=O)Nc3ccc([N+](=O)[O-])cc3)CCCCC2)nc1 [Compound (1), (S) 3-(1H-Indol-3-yl)-N-[1-(5-methoxy-pyridin-2-yl)-cyclohexyl-methyl]-2-methyl-2-[3-(4-nitro-phenyl)-ureido]-propionamide] was tested, and the Ejaculation latency (Sprague Dawley male rats [1]; [4]) was “significantly decreased”, the Mount latency (Sprague Dawley male rats [1]; [4]) was “significantly decreased” and the “percentage of animals ejaculating” value (Sprague Dawley male rats [1]; within 30 minutes, day 4 Compound (1) 15mg/kg or yohimbine 2mg/kg i.p. (vs fluoxetine+vehicle)) was “increasing the percentage of animals ejaculating”. For the same molecule, the Ejaculation latency (Sprague Dawley male rats [2]) was “no effect”, the Intromission latency (Sprague Dawley male rats [2]) was “no effect” and the Mount latency (Sprague Dawley male rats [2]) was “no effect”. For the same molecule, the Refractory period (Sprague Dawley male rats [2]) was “no effect”, the “number of mounts and intromissions required to achieve ejaculation” value (Sprague Dawley male rats [2]) was “no effect” and the “lordosis quotient (LQ)” value [3] was “significant (P<0.05) stimulatory effect on the LQ”.
